Legend:
KAI2 [1] = biological target: T1, KAI2 (Arabidopsis thaliana, UniProt Q9SZU7); assay: biochemical; design: Competitive inhibition of dYLG (0.5 uM) hydrolysis by purified recombinant KAI2, fluorescence read-out; conditions: 0.5 uM dYLG substrate, 10 min
T1 sequence (Q9SZU7 1-270): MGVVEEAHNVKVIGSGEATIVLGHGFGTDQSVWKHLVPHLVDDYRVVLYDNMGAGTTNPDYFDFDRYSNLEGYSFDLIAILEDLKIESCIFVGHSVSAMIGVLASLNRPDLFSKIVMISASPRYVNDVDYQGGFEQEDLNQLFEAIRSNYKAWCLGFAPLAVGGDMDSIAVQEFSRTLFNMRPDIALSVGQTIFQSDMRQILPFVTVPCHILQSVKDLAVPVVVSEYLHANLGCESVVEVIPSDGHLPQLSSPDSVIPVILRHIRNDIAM
Experimental: The purified KAI2 (1 µg) was incubated with dYLG (0.5 µM) in the absence or presence of dMGer analogs for 10 min. Fluorescence intensity was measured using the Varioskan LUX plate reader (Thermo Fisher Scientific), with excitation and detection wavelengths of 480 and 520 nm, respectively. The IC50 values were calculated using the Enzyme Kinetics module of the SigmaPlot 14 program. Additional detailed methods are described in SI Appendix, Materials and Methods. To produce KAI2 protein, KAI2 cDNA was cloned into the pCold II vector, and KAI2 protein was expressed and purified as previously described(5). Briefly, the plasmid was transformed into BL21, the resulting transformant cells were precultured overnight in 2.5 mL LB medium and then cells were grown in 200 mL TB medium at 35 °C to an OD600 ~0.6. Protein expression was induced by IPTG addition, and inductions were conducted at 16 °C for 20 h. Cells were harvested and then suspended in the protein extraction buffer (50 mM Tris-HCl pH 8.0, BugBuster protein extraction reagent, and 20U of Benzonase, and the constituent proteins were purified by affinity column chromatography. The purified KAI2 (1 µg) was incubated with dYLG (0.5 µM) in the absence or presence of dMGer analogs for 10 min. We first conducted competitive inhibition assays to determine whether the carba-dMGers could bind to the ligand binding pocket of KAI2. In these assays, a profluorescent probe, desmethyl-Yoshimulactone green (dYLG), was used as a substrate, and the KAI2 binding activity was assessed by the inhibitor concentrations necessary to halve the response (IC50) for fluorophore formation. […] Differential scanning fluorimetry (DSF) assays were also performed to evaluate the effect of the dMGer analogs on KAI2 destabilization. In the DSF assay, ligand–protein interactions are monitored by changes in the melting temperature (Tm); effective agonists, such as GR24^ent^-5DS and dGR24^ent^-5DS, lower the Tm value, that is, thermally destabilize the KAI2 protein ([15], [35]).

KAI2 [2] = biological target: T1, KAI2; assay: competitive dYLG hydrolysis assay with purified KAI2; also DSF and cleavage kinetics (K1/[…] =[…]); format: biochemical
KAI2 [3] = biological target: T1, KAI2; assay: competitive dYLG hydrolysis assay with purified KAI2; also DSF (Tm […] to […] °C) and HPLC hydrolysis (K1/[…] =[…]); format: biochemical
KAI2 [4] = biological target: T1, KAI2; assay: X-ray crystal structure at […] Å (soak); also dYLG competition IC50 and DSF; format: biochemical

Structure (SMILES) | IC50 (KAI2 [1]) [µM] | other results
O=C1C=C[C@@H](Oc2ccc(-c3ccccc3)cc2[N+](=O)[O-])O1 [(−)-dMGer] | 3.6 | 
O=C1C=C[C@@H](Cc2ccc(-c3ccccc3)cc2[N+](=O)[O-])O1 [(−)-6′-carba-dMGer] | 11 | 
O=C1C=C[C@H](Oc2ccc(-c3ccccc3)cc2[N+](=O)[O-])C1 [(+)-1′-carba-dMGer] |  | IC50 (KAI2 [2]): 78 µM
O=C1C=C[C@H](Oc2ccc(-c3ccccc3)cc2[N+](=O)[O-])O1 [(+)-dMGer] |  | IC50 (KAI2 [3]): 0.16 µM
O=C1CC(CCc2ccccc2Br)O1 (stereo not shown) [2Br-PEO, 4-(2-bromophenethyl)oxetan-2-one] | 0.22 | 
O=C1C=C[C@H](Cc2ccc(-c3ccccc3)cc2[N+](=O)[O-])O1 [(+)-6′-carba-dMGer] |  | IC50 (KAI2 [4]): 2.5 µM
O=C1C=C[C@@H](Oc2ccc(-c3ccccc3)cc2[N+](=O)[O-])C1 [(−)-1′-carba-dMGer] | 152 | 
